Assay [1] has as its target T1, flag-tagged HIF1α (AA 786-826) / His6-tagged p300 (AA 323-423) complex (Homo sapiens, UniProt Q09472).
T1 construct: His6-tagged p300 (AA 323-423); made in house; host or cells: E. coli (pETDuet vector)
The assay can be described thus: HIF1α p300 displacement assay (TR FRET, +CHAPS). It counts as binding. The settings on record: read-out: IC50 (nM) (HIF1α_p300 Displacement + CHAPS). The gist of the method:
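In this TR-FRET displacement format, peptides compete HIF1α C-terminal transactivation domain off p300-CH. They were preincubated 1 h at room temperature with 300 nM complex in HEPES pH 7.4/NaCl buffer with 7.5 mM CHAPS and 1 mM DTT. Anti-His-D2 (4 nM) and anti-Flag-K (0.5 μM) followed for 2 h, and a one-site fit of the fluorescence ratio gave IC50.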

Assay [2] relates to HRE-bla ME-180 cells. Nature of the assay: Cell proliferation assay (viability, MTT, 1% FBS). Format: cell-based, human. The method in brief:
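Viable cell number was measured with the CellTiter 96 (MTT) kit after compounds were applied for a 16 h normoxic (21% O2) pretreatment, followed by further normoxic or hypoxic (1% O2) culture. Cells: 2×10^4 ME-180 per well, Opti-MEM + 1% FBS, 0.5% DMSO vehicle.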

For assay [3], the system named is HRE-bla ME-180 cells. Nature of the assay: Reporter gene assay (HRE-bla ME-180 HIF reporter, GeneBLAzer). It counts as cell-based, human. To be noted: for EC50: 24 hour normoxia. The method in brief:
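A FRET β-lactamase readout of HIF transcription was used. After compound treatment in 0.3% DMSO/media under normoxic conditions, 20 μl of 6× LiveBLAzer-FRET B/G (CCF4-AM) substrate was added. Plates sat 3 hr at room temperature in the dark and were read at 409 Ex/460Em and 409Ex/530Em on a Synergy 2. Inhibition was compared against DMSO vehicle controls, with chetomin as positive control.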
A general note: Reporter assays use an easily measured gene product as a stand-in for the process of interest.

Bridge positions count the residues as written; N and C are the ends. Square brackets hold non-standard residues; d marks the D form. Peptide text beside a SMILES is read from it. R8 = C=CCCCCCC[C@@](C)(N)C(=O)O; S5 = C=CCCC[C@](C)(N)C(=O)O; Nle = CCCC[C@H](N)C(=O)O

One may read the IC50 as the concentration that inhibits the measured activity by half. By EC50 is commonly meant the concentration at which the effect is half-maximal.

Consider `CCCC[C@H](NC(=O)[C@H](CC(C)C)NC(=O)[C@@H](NC(=O)[C@H](CCC(=O)O)NC(=O)[C@H](CCC(=O)O)NC(=O)[C@H](CC(=O)O)NC(=O)[C@@H](NC(=O)[C@H](CC(N)=O)NC(=O)[C@@H](NC(=O)[C@H](CCC(N)=O)NC(=O)[C@H](CC(=O)O)NC(=O)[C@H](CC(C)C)NC(=O)[C@H](C)NC(=O)[C@]1(C)CCCC=CCCC[C@](C)(NC(=O)CNC(=O)[C@H](CCC(N)=O)NC(=O)[C@H](CC(C)C)NC(=O)[C@H](CC(C)C)NC(C)=O)C(=O)N[C@@H](CCC(=O)O)C(=O)N[C@@H](CC(C)C)C(=O)N[C@@H](CC(C)C)C(=O)N1)C(C)C)[C@@H](C)CC)C(C)C)C(=O)N[C@@]1(C)CCCC=CCCC[C@@](C)(C(=O)N[C@@H](CCCC)C(=O)NCC(N)=O)NC(=O)[C@H]([C@@H](C)CC)NC(=O)[C@H](C(C)C)NC(=O)[C@H](CC(C)C)NC1=O` [SP-338] (Ac-LLQG[S5]ELL[S5]ALDQVNIDEEVL[Nle][S5]LVI[S5][Nle]G-NH2; staple 5-9, 23-27), for which the 50% inhibitory concentration (IC50) in assay [1] is over 700 nM. Moreover, the “Viability 1% FBS AVG (MTT V3-24 hr Normoxia) (μM)” value (from here on “Viability 1% FBS AVG”) in assay [2] was “++++ (≥30: ++++)”. In assay [3], the “18 h Avg % max inhibition at top conc (HIF Rptr-24 hrs normoxia) (μM)” value (shortened to “18 h Avg % max inhibition at top conc”) was “+++ (≤25 but <50: +++)” and the half-maximal effective concentration (EC50) was over 30 µM.

Take `CCCC[C@H](NC(=O)[C@H](CC(C)C)NC(=O)[C@@H](NC(=O)[C@H](CCC(=O)O)NC(=O)[C@H](CCC(=O)O)NC(=O)[C@H](CC(=O)O)NC(=O)[C@@H](NC(=O)[C@H](CC(N)=O)NC(=O)[C@@H](NC(=O)[C@H](CCC(N)=O)NC(=O)[C@H](CC(=O)O)NC(=O)[C@]1(C)CCCC=CCCC[C@](C)(NC(=O)[C@H](CCC(=O)O)NC(=O)[C@H](CCC(=O)O)NC(=O)CNC(=O)[C@H](CCC(N)=O)NC(=O)[C@H](CC(C)C)NC(=O)[C@H](CC(C)C)NC(C)=O)C(=O)N[C@@H](CC(C)C)C(=O)N[C@@H](CCCNC(=N)N)C(=O)N[C@@H](C)C(=O)N1)C(C)C)[C@@H](C)CC)C(C)C)C(=O)N[C@@]1(C)CCCC=CCCC[C@@](C)(C(=O)N[C@@H](CCCC)C(=O)NCC(N)=O)NC(=O)[C@H]([C@@H](C)CC)NC(=O)[C@H](C(C)C)NC(=O)[C@H](CC(C)C)NC1=O` [SP-339] (Ac-LLQGEE[S5]LRA[S5]DQVNIDEEVL[Nle][S5]LVI[S5][Nle]G-NH2; staple 7-11, 23-27): the IC50 in assay [1] was in the range of 200 to 400 nM. Moreover, the “Viability 1% FBS AVG” value in assay [2] was “++++ (≥30: ++++)”. Also, in assay [3], the “18 h Avg % max inhibition at top conc” value was “+ (<10: +)” and the concentration for a half-maximal effect (EC50) is over 30 µM.

With `CCCC[C@H](NC(=O)[C@H](CC(C)C)NC(=O)[C@@H](NC(=O)[C@H](CCC(=O)O)NC(=O)[C@H](CCC(=O)O)NC(=O)[C@H](CC(=O)O)NC(=O)[C@@H](NC(=O)[C@H](CC(N)=O)NC(=O)[C@@H](NC(=O)[C@]1(C)CCCC=CCCC[C@](C)(NC(=O)[C@H](CC(C)C)NC(=O)[C@H](CC(C)C)NC(=O)[C@H](CCC(=O)O)NC(=O)[C@H](CCC(=O)O)NC(=O)CNC(=O)[C@H](CCC(N)=O)NC(=O)[C@H](CC(C)C)NC(=O)[C@H](CC(C)C)NC(C)=O)C(=O)N[C@@H](C)C(=O)N[C@@H](CC(C)C)C(=O)N[C@@H](CC(=O)O)C(=O)N1)C(C)C)[C@@H](C)CC)C(C)C)C(=O)N[C@@]1(C)CCCC=CCCC[C@@](C)(C(=O)N[C@@H](CCCC)C(=O)NCC(N)=O)NC(=O)[C@H]([C@@H](C)CC)NC(=O)[C@H](C(C)C)NC(=O)[C@H](CC(C)C)NC1=O` [SP-340] (Ac-LLQGEELL[S5]ALD[S5]VNIDEEVL[Nle][S5]LVI[S5][Nle]G-NH2; staple 9-13, 23-27), in assay [1], the concentration for half-maximal inhibition (IC50) was over 700 nM. Besides, the “Viability 1% FBS AVG” value in assay [2] is “++++ (≥30: ++++)”. For the same compound, in assay [3], the “18 h Avg % max inhibition at top conc” value was “++ (≤10 but <25: ++)” and the EC50 was over 30 µM.

`CCCC[C@H](NC(=O)[C@H](CC(C)C)NC(=O)[C@@H](NC(=O)[C@H](CCC(=O)O)NC(=O)[C@H](CCC(=O)O)NC(=O)[C@H](CC(=O)O)NC(=O)[C@@H](NC(=O)[C@H](CC(N)=O)NC(=O)[C@@H](NC(=O)[C@H](CCC(N)=O)NC(=O)[C@H](CC(=O)O)NC(=O)[C@]1(C)CCCC=CCCCCCC[C@@](C)(NC(=O)[C@H](CCC(N)=O)NC(=O)[C@H](CC(C)C)NC(=O)[C@H](CC(C)C)NC(C)=O)C(=O)N[C@@H](CCC(=O)O)C(=O)N[C@@H](CCC(=O)O)C(=O)N[C@@H](CC(C)C)C(=O)N[C@@H](CC(C)C)C(=O)N[C@@H](CCCNC(=N)N)C(=O)N[C@@H](C)C(=O)N1)C(C)C)[C@@H](C)CC)C(C)C)C(=O)N[C@@]1(C)CCCC=CCCC[C@@](C)(C(=O)N[C@@H](CCCC)C(=O)NCC(N)=O)NC(=O)[C@H]([C@@H](C)CC)NC(=O)[C@H](C(C)C)NC(=O)[C@H](CC(C)C)NC1=O` [SP-341] (Ac-LLQ[R8]EELLRA[S5]DQVNIDEEVL[Nle][S5]LVI[S5][Nle]G-NH2; staple 4-11, 23-27): the IC50 in assay [1] was in the range of 200 to 400 nM. Also, in assay [2], the “Viability 1% FBS AVG” value is given as “++++ (≥30: ++++)”. In assay [3], the “18 h Avg % max inhibition at top conc” value is “+ (<10: +)” and the EC50 was over 30 µM.

Take `CCCC[C@H](NC(=O)[C@H](CC(C)C)NC(=O)[C@@H](NC(=O)[C@H](CCC(=O)O)NC(=O)[C@H](CCC(=O)O)NC(=O)[C@H](CC(=O)O)NC(=O)[C@@H](NC(=O)[C@H](CC(N)=O)NC(=O)[C@@H](NC(=O)[C@H](CCC(N)=O)NC(=O)[C@]1(C)CCCC=CCCCCCC[C@@](C)(NC(=O)CNC(=O)[C@H](CCC(N)=O)NC(=O)[C@H](CC(C)C)NC(=O)[C@H](CC(C)C)NC(C)=O)C(=O)N[C@@H](CCC(=O)O)C(=O)N[C@@H](CC(C)C)C(=O)N[C@@H](CC(C)C)C(=O)N[C@@H](CCCNC(=N)N)C(=O)N[C@@H](C)C(=O)N[C@@H](CC(C)C)C(=O)N1)C(C)C)[C@@H](C)CC)C(C)C)C(=O)N[C@@]1(C)CCCC=CCCC[C@@](C)(C(=O)N[C@@H](CCCC)C(=O)NCC(N)=O)NC(=O)[C@H]([C@@H](C)CC)NC(=O)[C@H](C(C)C)NC(=O)[C@H](CC(C)C)NC1=O` [SP-342] (Ac-LLQG[R8]ELLRAL[S5]QVNIDEEVL[Nle][S5]LVI[S5][Nle]G-NH2; staple 5-12, 23-27): the concentration for half-maximal inhibition (IC50) in assay [1] is over 700 nM. Moreover, the “Viability 1% FBS AVG” value in assay [2] is reported as “++++ (≥30: ++++)”. In assay [3], the “18 h Avg % max inhibition at top conc” value is given as “+++ (≤25 but <50: +++)” and the half-maximal effective concentration (EC50) is over 30 µM.

In the case of `CCCC[C@H](NC(=O)[C@H](CCC(=O)O)NC(=O)[C@]1(C)CCCC=CCCCCCC[C@@](C)(NC(=O)[C@H](CCC(=O)O)NC(=O)[C@H](CC(=O)O)NC(=O)[C@@H](NC(=O)[C@H](CC(N)=O)NC(=O)[C@@H](NC(=O)[C@H](CCC(N)=O)NC(=O)[C@H](CC(=O)O)NC(=O)[C@H](CC(C)C)NC(=O)[C@H](C)NC(=O)[C@]2(C)CCCC=CCCC[C@](C)(NC(=O)CNC(=O)[C@H](CCC(N)=O)NC(=O)[C@H](CC(C)C)NC(=O)[C@H](CC(C)C)NC(C)=O)C(=O)N[C@@H](CCC(=O)O)C(=O)N[C@@H](CC(C)C)C(=O)N[C@@H](CC(C)C)C(=O)N2)C(C)C)[C@@H](C)CC)C(=O)N[C@@H](C(C)C)C(=O)N[C@@H](CC(C)C)C(=O)N[C@@H](CCCC)C(=O)N[C@@H](CO)C(=O)N[C@@H](CC(C)C)C(=O)N[C@@H](C(C)C)C(=O)N1)C(=O)NCC(N)=O` [SP-343] (Ac-LLQG[S5]ELL[S5]ALDQVNIDE[R8]VL[Nle]SLV[S5]E[Nle]G-NH2; staple 5-9, 19-26), in assay [1], the IC50 is 200 to 400 nM. The “Viability 1% FBS AVG” value in assay [2] is reported as “++++ (≥30: ++++)”. Moreover, in assay [3], the “18 h Avg % max inhibition at top conc” value is listed as “+ (<10: +)” and the concentration for a half-maximal effect (EC50) was over 30 µM.

On to `CCCC[C@H](NC(=O)[C@H](CCC(=O)O)NC(=O)[C@]1(C)CCCC=CCCCCCC[C@@](C)(NC(=O)[C@H](CCC(=O)O)NC(=O)[C@H](CC(=O)O)NC(=O)[C@@H](NC(=O)[C@H](CC(N)=O)NC(=O)[C@@H](NC(=O)[C@H](CCC(N)=O)NC(=O)[C@H](CC(=O)O)NC(=O)[C@]2(C)CCCC=CCCC[C@](C)(NC(=O)[C@H](CCC(=O)O)NC(=O)[C@H](CCC(=O)O)NC(=O)CNC(=O)[C@H](CCC(N)=O)NC(=O)[C@H](CC(C)C)NC(=O)[C@H](CC(C)C)NC(C)=O)C(=O)N[C@@H](CC(C)C)C(=O)N[C@@H](CCCNC(=N)N)C(=O)N[C@@H](C)C(=O)N2)C(C)C)[C@@H](C)CC)C(=O)N[C@@H](C(C)C)C(=O)N[C@@H](CC(C)C)C(=O)N[C@@H](CCCC)C(=O)N[C@@H](CO)C(=O)N[C@@H](CC(C)C)C(=O)N[C@@H](C(C)C)C(=O)N1)C(=O)NCC(N)=O` [SP-344] (Ac-LLQGEE[S5]LRA[S5]DQVNIDE[R8]VL[Nle]SLV[S5]E[Nle]G-NH2; staple 7-11, 19-26), for which the IC50 in assay [1] is 400 to 700 nM. In addition, the “Viability 1% FBS AVG” value in assay [2] was “++++ (≥30: ++++)”. In assay [3], the “18 h Avg % max inhibition at top conc” value is recorded as “+ (<10: +)” and the EC50 was over 30 µM.

These data come from patent US20190225650A1, “PEPTIDOMIMETIC MACROCYCLES AND USE THEREOF IN REGULATING HIF1ALPHA” (AILERON THERAPEUTICS, INC., priority 2013, published 2019).
